The text below walks through data of patent US20240207258A1, “HETEROCYCLIC PDK1 INHIBITORS FOR USE TO TREAT CANCER” (Viracta Therapeutics, Inc., priority 2015, published 2024).

The subject of assay [1] is panel of 270 different human kinases. Description: Kinase selectivity panel (Upstate/Millipore). In kind it is biochemical. The note with it: 10 μM, panel of 270 kinases. Here is the method:
The selectivity of Compound 1 and Compound 2 was evaluated in a panel of 270 different human kinases offered by Upstate (now Millipore).

A further assay has as its system MV4-11 tumor xenografts. Description: MV4-11 tumor xenograft efficacy. The assay is classed as in vivo, mice. The source says: MV4-11 cells were propagated in vitro and implanted subcutaneous into the right flank of 9-week old female NCr nu/nu mice as described in Example 7. The animals were fed ad libitum water (reverse osmosis, 1 ppm Cl), and NIH 31 Modified and Irradiated Lab Diet® consisting of 18.0% crude protein, 5.0% crude fat, and 5.0% crude fiber. Fourteen days after tumor implantation, designated as Day 1 of the study, the animals were sorted into seven groups each consisting of ten mice with individual tumor volumes of 108 to 288 mm^3 and group mean tumor volumes (MTV) of 162 to 165 mm^3. On Day 1 of the study, dosing by oral gavage was initiated as follows: The dosing volume was 0.100 mL per 20 grams of body weight (5 mL/kg), and was scaled to the body weight of each individual animal. Group 1 mice received vehicle and served as the control group. Groups 2-4 received Compound 1 at 5, 11, and 25 mg/kg, respectively, qd×21. Groups 5-7 received Compound 2 at 5, 11, and 25 mg/kg, respectively, qd×21. Dosing solutions were prepared weekly by dissolving the appropriate amount of powder in 1% […] (DMA) in Labrasol® (vehicle) to yield a 5 mg/mL solution. The 5 mg/mL solution provided the 25 mg/kg dosage in a dosing volume of 5 mL/kg. An aliquot of the 5 mg/mL solution was diluted in the vehicle to concentrations of 2.2 and 1 mg/mL which provided the 11 and 5 mg/kg dosages, respectively, in a dosing volume of 5 mL/kg.
Tumors were measured using calipers twice per week. The study endpoint was defined as a mean tumor volume of 2000 mm^3 in the control group or 22 days, whichever came first and the study was terminated on Day 22. Animals were weighed daily on Days 1-5, then twice per week until the completion of the study. The mice were observed frequently for overt signs of any adverse, treatment related (TR) side effects, and clinical signs were recorded when observed. Individual body weight loss was monitored as per protocol and any animal whose weight exceeded the limits for acceptable body weight loss was euthanized. Group mean body weight loss also was monitored as per protocol. Dosing was to be suspended in any group whose weight exceeded the limits for acceptable mean body weight loss. If mean body weight recovered, then dosing may be resumed in that group, but at a lower dosage or less frequent dosing schedule. Acceptable toxicity was defined as a group mean body weight loss of less than 20% during the study and not more than 10% treatment-related (TR) deaths. Any dosing regimen resulting in greater toxicity was considered above the maximum tolerated dose (MTD). A death was classified as TR if attributable to treatment side effects as evidenced by clinical signs and/or necropsy, or may also be classified as TR if due to unknown causes during the dosing period or within 14 days of the last dose. A death was classified as non-treatment-related (NTR) if there was no evidence that death was related to treatment side effects.
Treatment efficacy was determined using data from the final day. The MTV (n) (the median tumor volume for the number of animals, n) on the final day was determined for each group. Group 1 mice that received vehicle p.o. qd×21 served as the control group for analysis of tumor growth inhibition (TGI) determined according to the formula % TGI=[1−(MTVdrug-treated/MTVcontrol)]×100. Treatment efficacy was also determined from the incidence and magnitude of regression responses observed during the study. Treatment may cause partial regression (PR) or complete regression (CR) of the tumor in an animal. In a PR response, the tumor volume was 50% or less of its Day 1 volume for three consecutive measurements during the course of the study, and equal to or greater than 13.5 mm^3 for one or more of these three measurements. In a CR response, the tumor volume was less than 13.5 mm^3 for three consecutive measurements during the course of the study.

Another assay concerns MV4-11. Description: MTS cell proliferation assay, MV4-11. The assay is classed as cell-based, human. The note with it: Homo sapiens; MV4-11, 72 hr; read-out: MTS proliferation assay. The procedure: Cell proliferation was measured using the CellTiter 96 Aqueous Non-Radioactive Cell Proliferation Assay (Promega). […] MTS is bioreduced by cells into a formazan product that is soluble in tissue culture medium. The absorbance of the formazan product at 490 nm can be measured directly from assay plates without additional processing. The quantity of formazan product as measured by the amount of 490 nm absorbance is directly proportional to the number of living cells in culture. Cells were seeded into 96-well or 384-well clear plates in a volume of 200 μL (96-well) or 50 μL (384-well) at optimized densities ranging from 1,000 to 40,000 cells per well for 96-well plates or 1,200 to 25,000 cells per well for 384-well plates depending on cell-line. After 4-6 hr recovery, serially diluted compounds in DMSO were added to the cells using (0.1% v/v final DMSO concentration). Cells were then grown at 37° C. in a humidified incubator with 5% CO2 for 72 hr. A 20:1 [3-(4,5-dimethylthiazol-2-yl)-5-(3-carboxymethoxyphenyl)-2-(4-sulfophenyl)-2H-tetrazolium](MTS):phenazine methosulfate (PMS) solution in DPBS was made immediately before use, added to each well, and cells were incubated for 1.5 hr at 37° C. The absorbance at 490 nm was then measured using a platereader. Absorbance values were normalized as percent of control (cells incubated in the presence of 0.1% v/v DMSO). Sigmoidal dose-response curves were plotted using log(inhibitor) vs. response—Variable slope (four parameters) model with a top value constrained to 100% (GraphPad Prism version 6.00 for Windows, GraphPad Software, La Jolla California USA). […] To determine potential of compounds of the invention to affect viability of hematological cancers, cell lines representing various tumor types were selected and tested. […] In addition, two murine cell lines were tested: A20 […].
A general note: Formazan colour is commonly taken as a measure of viable cells.

The structures appear in SMILES notation.

Regarding `C[C@H](NC(=O)c1nc(C#N)cnc1NCc1ccc(-c2cnc3[nH]nc(N)c3n2)cc1)c1ccc(F)c(F)c1` [Compound 1, 3-[4-(3-Amino-1H-pyrazolo[3,4-b]pyrazin-5-yl)-benzylamino]-6-cyano-pyrazine-2-carboxylic acid [1-(3,4-difluoro-phenyl)-ethyl]-amide], the “number of kinases with inhibition greater than or equal to 90% (including PDK1)” value in assay [1] turned out to be 18. Besides, the “MTV (median tumor volume) on Day 22” value in the assay with MV4-11 tumor xenografts (5 mg/kg p.o. qd×21) is 446 mm^3; with MV4-11 tumor xenografts (11 mg/kg p.o. qd×21) it was 288 mm^3; with MV4-11 tumor xenografts (25 mg/kg p.o. qd×21), 63 mm^3. The “TGI (tumor growth inhibition)” value in the assay with MV4-11 tumor xenografts (5 mg/kg p.o. qd×21, Day 22) stood at 69%; in the assay with MV4-11 tumor xenografts (11 mg/kg p.o. qd×21, Day 22), 80%; with MV4-11 tumor xenografts (25 mg/kg p.o. qd×21, Day 22), 96%. Also, the “regression responses (PRs)” value with MV4-11 tumor xenografts (5 mg/kg p.o. qd×21, ten mice) is recorded as “no regression responses”; with MV4-11 tumor xenografts (11 mg/kg p.o. qd×21, ten mice) it was “no regression responses”; in the assay with MV4-11 tumor xenografts (25 mg/kg p.o. qd×21, ten mice), “seven”. Also, in the assay with MV4-11, the EC50 was determined as 5 nM.
In the case of `CNc1n[nH]c2ncc(-c3ccc(CNc4ncc(C#N)nc4C(=O)N[C@@H](C)c4ccc(F)c(F)c4)cc3)cc12` [Compound 2, 6-Cyano-3-[4-(3-methylamino-1H-pyrazolo[3,4-b]pyridin-5-yl)-benzylamino]-pyrazine-2-carboxylic acid [1-(3,4-difluoro-phenyl)-ethyl]-amide], the “number of kinases with inhibition greater than or equal to 90% (including PDK1)” value in assay [1] amounted to 20. The “MTV (median tumor volume) on Day 22” value was 320 mm^3 in the assay on MV4-11 tumor xenografts (5 mg/kg p.o. qd×21), 108 mm^3 in the assay with MV4-11 tumor xenografts (11 mg/kg p.o. qd×21) and 40 mm^3 with MV4-11 tumor xenografts (25 mg/kg p.o. qd×21). Further, the “TGI (tumor growth inhibition)” value in the assay on MV4-11 tumor xenografts (5 mg/kg p.o. qd×21, Day 22) is listed as 77%; with MV4-11 tumor xenografts (11 mg/kg p.o. qd×21, Day 22) it was 92%; in the assay on MV4-11 tumor xenografts (25 mg/kg p.o. qd×21, Day 22) it was 97%. Moreover, the “regression responses (PRs)” value in the assay with MV4-11 tumor xenografts (5 mg/kg p.o. qd×21, ten mice) is reported as “no regression responses”; with MV4-11 tumor xenografts (11 mg/kg p.o. qd×21, ten mice), “three”; with MV4-11 tumor xenografts (25 mg/kg p.o. qd×21, ten mice), “eight”. Moreover, in the assay with MV4-11, the EC50 stood at 7 nM.
